According to PubChem BioAssay (NCI):
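GI50 marks 50% less growth. TGI denotes the concentration required for complete inhibition of growth.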

Key:
Experiment in all cases: NCI tumour cell line growth inhibition, 384-well format
K-562 leukemia = system: K-562 leukemia
COLO 205 colon = system: COLO 205 colon
SK-OV-3 ovarian = system: SK-OV-3 ovarian
M14 melanoma = system: M14 melanoma
786-0 renal = system: 786-0 renal
HCT-116 colon = system: HCT-116 colon
UACC-257 melanoma = system: UACC-257 melanoma
CAKI-1 renal = system: CAKI-1 renal
NCI-H226 lung = system: NCI-H226 lung
NCI/ADR-RES ovarian = system: NCI/ADR-RES ovarian
HOP-92 NSCLC = system: HOP-92 NSCLC
MDA-MB-468 breast = system: MDA-MB-468 breast
NCI-H460 NSCLC = system: NCI-H460 NSCLC
OVCAR-4 ovarian = system: OVCAR-4 ovarian
A549 NSCLC = system: A549 NSCLC
UO-31 renal = system: UO-31 renal
MDA-MB-231 breast = system: MDA-MB-231 breast
SF-295 CNS = system: SF-295 CNS
HT29 colon = system: HT29 colon
MDA-MB-435 melanoma = system: MDA-MB-435 melanoma
SN12C renal = system: SN12C renal
BT-549 breast = system: BT-549 breast
HCC-2998 colon = system: HCC-2998 colon
SW-620 colon = system: SW-620 colon
MALME-3M melanoma = system: MALME-3M melanoma
LOX IMVI melanoma = system: LOX IMVI melanoma
HL-60(TB) leukemia = system: HL-60(TB) leukemia
PC-3 prostate = system: PC-3 prostate
KM12 colon = system: KM12 colon
SK-MEL-2 melanoma = system: SK-MEL-2 melanoma
A498 renal = system: A498 renal
DU-145 prostate = system: DU-145 prostate
RPMI-8226 leukemia = system: RPMI-8226 leukemia
OVCAR-8 ovarian = system: OVCAR-8 ovarian
HOP-62 NSCLC = system: HOP-62 NSCLC
U251 glioblastoma = system: U251 glioblastoma
SF-268 CNS = system: SF-268 CNS
MOLT-4 leukemia = system: MOLT-4 leukemia
SK-MEL-5 melanoma = system: SK-MEL-5 melanoma
NCI-H522 lung = system: NCI-H522 lung
SK-MEL-28 melanoma = system: SK-MEL-28 melanoma
ACHN renal = system: ACHN renal
EKVX NSCLC = system: EKVX NSCLC
MCF7 breast = system: MCF7 breast
T-47D breast = system: T-47D breast
UACC-62 melanoma = system: UACC-62 melanoma
SNB-19 CNS = system: SNB-19 CNS

Cc1cc(Nc2ccc(NC(=O)c3ccc(Nc4ccnc5ccccc45)cc3)cc2)nc(N)n1
GI50 (K-562 leukemia): 0.324 µM | TGI (K-562 leukemia): 0.921 µM | GI50 (COLO 205 colon): 0.206 µM | TGI (COLO 205 colon): 0.352 µM | GI50 (SK-OV-3 ovarian): 0.917 µM | TGI (SK-OV-3 ovarian): 2.25 µM | GI50 (M14 melanoma): 1.55 µM | TGI (M14 melanoma): 2.92 µM | GI50 ([…]-0 renal): 0.872 µM | TGI (786-0 renal): 2.24 µM | GI50 (HCT-116 colon): 0.2 µM | TGI (HCT-116 colon): 0.413 µM | GI50 (UACC-257 melanoma): 0.556 µM | TGI (UACC-257 melanoma): 1.56 µM | GI50 (CAKI-1 renal): 2.96 µM | TGI (CAKI-1 renal): 8.45 µM | GI50 (NCI-H226 lung): 0.625 µM | TGI (NCI-H226 lung): 1.21 µM | GI50 (NCI/ADR-RES ovarian): > 100 µM | TGI (NCI/ADR-RES ovarian): > 100 µM | GI50 (HOP-92 NSCLC): 0.539 µM | TGI (HOP-92 NSCLC): 1.52 µM | GI50 (MDA-MB-468 breast): 0.196 µM | TGI (MDA-MB-468 breast): 0.339 µM | GI50 (NCI-H460 NSCLC): 1.67 µM | TGI (NCI-H460 NSCLC): 3.15 µM | GI50 (OVCAR-4 ovarian): 0.521 µM | TGI (OVCAR-4 ovarian): 0.957 µM | GI50 (A549 NSCLC): 1.87 µM | TGI (A549 NSCLC): 3.4 µM | GI50 (UO-31 renal): 33.8 µM | TGI (UO-31 renal): > 100 µM | GI50 (MDA-MB-231 breast): 0.275 µM | TGI (MDA-MB-231 breast): 0.737 µM | GI50 (SF-295 CNS): 3.16 µM | TGI (SF-295 CNS): 8.99 µM | GI50 (HT29 colon): 0.319 µM | TGI (HT29 colon): 0.815 µM | GI50 (MDA-MB-435 melanoma): 1.85 µM | TGI (MDA-MB-435 melanoma): 3.26 µM | GI50 (SN12C renal): 1.22 µM | TGI (SN12C renal): 2.48 µM | GI50 (BT-549 breast): 0.49 µM | TGI (BT-549 breast): 1.12 µM | GI50 (HCC-2998 colon): 0.541 µM | TGI (HCC-2998 colon): 1 µM | GI50 (SW-620 colon): 0.25 µM | TGI (SW-620 colon): 0.58 µM | GI50 (MALME-3M melanoma): 1 µM | TGI (MALME-3M melanoma): 2.23 µM | GI50 (LOX IMVI melanoma): 0.166 µM | TGI (LOX IMVI melanoma): 0.308 µM | GI50 (HL-60(TB) leukemia): 0.603 µM | TGI (HL-60(TB) leukemia): 1.06 µM | GI50 (PC-3 prostate): 0.894 µM | TGI (PC-3 prostate): 2.25 µM | GI50 (KM12 colon): 0.193 µM | TGI (KM12 colon): 0.355 µM | GI50 (SK-MEL-2 melanoma): 0.199 µM | TGI (SK-MEL-2 melanoma): 0.386 µM | GI50 (A498 renal): 1.5 µM | TGI (A498 renal): 2.89 µM | GI50 (DU-145 prostate): 1.6 µM | TGI (DU-145 prostate): 2.98 µM | GI50 (RPMI-8226 leukemia): 3.11 µM | TGI (RPMI-8226 leukemia): 7.87 µM | GI50 (OVCAR-8 ovarian): 0.831 µM | TGI (OVCAR-8 ovarian): 2.1 µM | GI50 (HOP-62 NSCLC): 0.695 µM | TGI (HOP-62 NSCLC): 1.84 µM | GI50 (U251 glioblastoma): 0.195 µM | TGI (U251 glioblastoma): 0.34 µM | GI50 (SF-268 CNS): 0.732 µM | TGI (SF-268 CNS): 1.82 µM | GI50 (MOLT-4 leukemia): 0.203 µM | TGI (MOLT-4 leukemia): 0.347 µM | GI50 (SK-MEL-5 melanoma): 1.34 µM | TGI (SK-MEL-5 melanoma): 2.63 µM | GI50 (NCI-H522 lung): 0.217 µM | TGI (NCI-H522 lung): 0.41 µM | GI50 (SK-MEL-28 melanoma): 0.987 µM | TGI (SK-MEL-28 melanoma): 2.27 µM | GI50 (ACHN renal): 11.2 µM | TGI (ACHN renal): 31 µM | GI50 (EKVX NSCLC): 1.23 µM | TGI (EKVX NSCLC): 2.67 µM | GI50 (MCF7 breast): 0.254 µM | TGI (MCF7 breast): 0.618 µM | GI50 (T-47D breast): 0.192 µM | TGI (T-47D breast): 0.334 µM | GI50 (UACC-62 melanoma): 0.719 µM | TGI (UACC-62 melanoma): 1.94 µM | GI50 (SNB-19 CNS): 1.24 µM | TGI (SNB-19 CNS): 2.51 µM
